Reference: patent publication US10046032B2, “Use of insulin for promoting gastric emptying” (NUTRINIA LTD., priority 2016, dated 2018)
Values joined by “and” are separate entries in the source; they are usually repeats but may differ in a detail not shown here. Identical values can stand only once.

Columns and labels:
preterm infants [1] = tested on: preterm infants
Experimental: A Multi-center, two arms, randomized, double-blinded placebo controlled study was conducted to evaluate the effect of insulin-enriched infant formula on preterm infants. The insulin was given within a liquid infant formula with insulin concentration of 400 μU/ml. The study primary goal was to determine whether insulin supplement within the basic preterm oral formula enhances gastric emptying. The gastric emptying was evaluated by the reduction in the amount of gastric residual of the preterm infants.
The infants were randomly assigned to one of two treatment groups: the study product containing insulin as a test group and Placebo supplement as a control group. The parents, the medical team treating the infants and the study monitor were blinded to the treatment arm. From study day 1, the infants in the test group received insulin mixed with the ready to feed (RTF) preterm Materna formula and the control group received a placebo supplement mixed with the same RTF preterm Materna formula.
The insulin composition was used according to study definitions and feeding protocol only. Formula administration was begun at study day 1 and continued throughout the following 28 days or discharge day if achieved prior to day 28. […]

preterm infants [2] = assay: Singleton study: days until gastric residuals fall, insulin-enriched preterm formula vs placebo; type: in vivo, human; conditions: singletons
Text: (§1) Evaluation of gastric residuals (GR) is used in neonatal intensive care units to measure the volume of milk remaining in the stomach at a variable time after a feeding, and as an indicator of gastric emptying (GE).
(§2) 33 preterm infants, aged up to 7 days old, born between 26-33 weeks of pregnancy, weighing over 750 grams, who are free from high index suspicion for infection showing stable condition were enrolled into this study.
(§3) The study products included the insulin composition disclosed herein and placebo. The insulin composition is intended to be mixed with 90 ml ready to feed (RTF) preterm infant formula (manufacturer: Nestle Germany, importer: Materna Laboratories, Israel). Once the insulin is added to the formula, the formula has the concentration of 400 μU Insulin/ml formula.
(§4) Standard feeding bottles and nipples were used.
(§5) The gastric residual amount was measured after every meal.
Singletons were examined for number of days until gastric residual measurements reached less than 2 ml/kg body weight (FIG. 3) and until no gastric residuals were emitted (Table 3).

preterm infants [3] = assay: Twin pair study: days until gastric residuals fall, insulin-enriched preterm formula vs placebo; type: in vivo, human; conditions: twin pairs
Text: as §1, §2, §3, §4, §5
Twin pairs, treated with insulin as described above, were examined for number of days until gastric residual measurements reached less than 0 ml/kg body weight (FIG. 2 and Table 1) or 2 ml/kg (FIG. 1 and Table 2). […] The enteral administration of insulin strikingly provided a statistically significant improvement in the number of days until gastric residuals reached […] body weight, or <2 ml/kg body weight, relative to control treated infants.

[4] = insulin 400 μU/ml in formula, up to 28 days

Human insulin
Deleterious effects resulting from the insulin administration (preterm infants [1]; low birth weight / preterm infants, enteral insulin): No deleterious effects | Effect on blood glucose or insulin levels (preterm infants [1]; orally administered to preterm infants): without affecting the blood glucose or insulin levels | Time to reach gastric residuals of less than 2 ml/kg versus control (preterm infants [2]; FIG. 3, P=0.121): earlier than the control | Time to reach no gastric residuals (0 ml/kg) versus control (preterm infants [2]; Table 3, P=0.021): earlier than their control singletons | Number of days until no gastric residuals are emitted, Median (range) (preterm infants [2]; insulin 400 μU/ml in formula, P=0.021 vs control): 0.0 (0-2) days | Number of days until no gastric residuals are emitted, individual infant (preterm infants [2]; treatment infants no. 1-6, insulin 400 μU/ml in formula): 0 days (5×) and 2 days | Time to reach gastric residuals of less than 2 ml/kg or 0 ml/kg versus control twin (preterm infants [3]; FIG. 1 (p=0.031) and FIG. 2 (p=0.074)): earlier than their control infant twin in most twin pairs | Number of days until gastric residuals reached 0 ml/Kg body weight, Median (preterm infants [3]; [4]): 0.0 days | Number of days until gastric residuals reached < 2 ml/Kg body weight, Median (preterm infants [3]; [4]): 0 days | Number of days until gastric residuals reached < 2 ml/Kg body weight, Average (preterm infants [3]; insulin 400 μU/ml in formula, up to 28 days, P = 0.031 vs control): 3.8 days | Number of days until gastric residuals reached 0 ml/Kg body weight, Average (preterm infants [3]; insulin 400 μU/ml in formula, up to 28 days, P = 0.074 vs control): 4.1 days
